From patent US20190365705A1, “TOPICAL TOCOTRIENOL COMPOSITIONS AND METHODS OF INCREASING SKIN STEM CELLS” (OHIO STATE INNOVATION FOUNDATION, priority 2017, published 2019)
{6FAM} = 6-carboxyfluorescein label

What was measured:
β-catenin = experiment: Topical IWR-1 pre-treatment of adult murine skin followed by TRF; format: in vivo, C57B1/6 mice
Method: Mice were randomly (www.random.org) divided into different groups as indicated in corresponding figure legends. The dorsal skin was shaved and hair was depilated using Nair® two days before experiments. TRF or its placebo (PBO) was applied topically at a dose of 5 mg/cm^2 skin, thrice per week. During the procedure, mice were anesthetized by low-dose isoflurane inhalation. Digital photographs were collected (Canon PowerShot S6 and Dermascope from Dino-lite ProII). In some experiments, to inhibit β-catenin expression, IWR-1 (Sigma; I0161) was used. A 10% DMSO stock IWR-1 solution was prepared and diluted with glycerol to a final concentration of 2 μg per 0.5 cm^2 of skin. This solution was applied topically on the dorsal skin of C57B1/6 mice at a dose of 12.5 μL/0.5 cm^2 for four consecutive days of IWR-1 or vehicle followed by 7 consecutive days of […] for one hour under occlusive dressing (Tegaderm™, 3M, St. Paul, Minn.).
Detection of anagen induction. Promotion of hair growth was evaluated by observing the skin color which is indicative of the telogen-to-anagen conversion.^50 Skin, collected and 8 μm formalin-fixed paraffin-embedded skin sections, were deparaffinized and stained with hematoxylin & eosin. Mosaic images at 20× were collected using Axioscanner (Zeiss Microscopy). From histological characterization of the sections, anagen follicles in dermis and subcutis layers were enumerated.
Histology, immunohistochemistry (IHC) and immunocytochemistry (ICC). Histology of skin was performed from 8 μm thick paraffin sections after staining with Hematoxylin and Eosin (H&E). Immunostaining of Ki67 (Abcam, ab15580; 1:400), LGR6 (Abcam, ab126747; 1:100), CD34 (Abcam, ab8158; 1:200), OCT4 (Abcam, ab19857; 1:200), SOX9 (Abcam, ab185230; 1:1000), KLF4 (Abcam; ab151733, 1:200), c-MYC (Abcam; ab32072, 1:200), NANOG (Abcam; ab80892, 1:200), K17 (Abcam, ab53707; 1:100), K15 (Abcam, ab52816; 1:100), Claudin (Invitrogen, RB9209P; 1:200), Occludin (Invitrogen, 711500; 1:200), ZO-1(Invitrogen, 617300; 1:200), ZO-2 (Invitrogen, 389100; 1:200), E-cadherin (Life Technologies, 131900; 1:200) and β-catenin (Abcam, ab22656; 1:200) were performed on paraffin and cryosections of skin sample using specific antibodies as indicated.^57 For immunocytochemistry, cells were fixed with cell fixation buffer (ebiosciences; 00-8222-49) and stained for respective antibodies. Specificity of the antibodies were validated using rabbit isotype control (Abcam, ab27478; 1:400), rat isotype control (Abcam, ab18412; 1:200), and mouse isotype control (Abcam, ab18443; 1:200) (FIG. 13). Briefly, OCT embedded tissue were cryosectioned (10 μm), fixed with cold acetone, blocked with 10% normal goat serum and incubated with specific antibodies overnight at 4° C. Signal was visualized by subsequent incubation with either biotinylated-tagged for DAB staining and fluorescence-tagged appropriate secondary antibodies (Alexa 488-tagged α-mouse, 1:200; Alexa 568-tagged α-mouse, 1:200; Alexa 488-tagged α-rabbit, 1:200; Alexa 568-tagged α-rabbit, 1:200; Alexa 568-tagged α-rat, 1:200).

β-catenin-Tcf3 complex = experiment: Tcf3 decoy transfection of keratinocytes with tocotrienol treatment (quantitative immunocytochemistry); format: cell-based, human; conditions: 24 h
Method: (§1) Cell and cell culture. Immortalized human keratinocytes (HaCaT) were grown in Dulbecco's low-glucose modified Eagle's medium (Life Technologies) as described previously.^55 Cells were maintained in a standard culture incubator with humidified air containing 5% CO2 at 37° C.
Synthesis of Tcf3 decoy and control double-stranded oligodeoxynucleotides. Tcf3 decoy and control double-stranded oligodeoxynucleotides were prepared as described previously.^22 Briefly, FAM labelled phosphorothioate oligodeoxynucleotides were synthesized and purified by Sigma-Aldrich. The oligonucleotides sequence used were as follow: Tcf3 decoy sense, 5′-6FAM-CCGGGCTTTGATCTTTGC-3′ (SEQ ID NO:1); Tcf3 decoy anti-sense, 5′-6FAM-GCAAAGATCAAAGCCCGG-3′ (SEQ ID NO:2); Tcf3 scramble sense, 5′-6FAM-CCGGGTCAGTTCTTTTGC -3′ (SEQ ID NO:3); Tcf3 scramble anti-sense, 5′-6FAM-GCAAAAGAACTGACCCGG -3′ (SEQ ID NO:4). […]
(§2) Histology, immunohistochemistry (IHC) and immunocytochemistry (ICC). […] Signal was visualized by subsequent incubation with either biotinylated-tagged for DAB staining and fluorescence-tagged appropriate secondary antibodies (Alexa 488-tagged α-mouse, 1:200; Alexa 568-tagged α-mouse, 1:200; Alexa 488-tagged α-rabbit, 1:200; Alexa 568-tagged α-rabbit, 1:200; Alexa 568-tagged α-rat, 1:200).

β-catenin and Tcf3 = experiment: Proximity ligation assay (PLA) for β-catenin-Tcf3 in keratinocytes; format: cell-based, human; conditions: 1 μM, 24 h
Method: as §1
In situ proximity ligation assay (PLA). PLA was performed as described previously using Sigma Duolink® in situ red starter kit for […] (DUO92105) following manufacturer's instructions except that the incubation time was prolonged to 90 minutes.^58 The assay was performed using rabbit Tcf3 (Abcam, ab69999; 1:50) and mouse β-catenin (Abcam, ab22656; 1:200) antibodies. Slides were imaged using Olympus FV 1000 spectral confocal microscope.

[1] = system: human HaCaT keratinocytes; experiment: E-cadherin expression and β-catenin nuclear translocation in HaCaT keratinocytes (immunocytochemistry); format: cell-based; conditions: 24 h
Method: as §1
as §2, with “(ICC). Histology of skin was performed from 8 μm thick paraffin sections after staining with Hematoxylin and Eosin (H&E).” for “(ICC).”

## O=C(Nc1cccc2cccnc12)c1ccc(N2C(=O)[C@@H]3[C@H](C2=O)[C@@H]2C=C[C@H]3C2)cc1 [IWR-1]
β-catenin
  TRF-induced translocation of β-catenin to the nucleus: inhibited TRF-induced translocation of β-catenin to the nucleus
  lowering of E-cadherin in response to TRF: did not influence
β-catenin; TRF-treated adult skin
  epidermal β-catenin: effective in degrading epidermal β-catenin
β-catenin; day 11 (day 7 post TRF application), vs vehicle
  number of anagen hair follicles induced by topical TRF: significantly decreased
β-catenin; vs vehicle DMSO
  TRF-stimulated keratinocyte proliferation (Ki67+ cells): eliminating the effect of TRF on stimulating keratinocytes proliferation

## Tcf3 decoy: FAM labelled phosphorothioate double-stranded oligodeoxynucleotide based on Tcf3 binding consensus sequence (SEQ ID NO:1/2) (sense CCGGGCTTTGATCTTTGC; antisense GCAAAGATCAAAGCCCGG; DNA, all phosphorothioate, 5' {6FAM}, methylation of C not given here)
β-catenin-Tcf3 complex; decoy 0.1 μM vs scramble 0.1 μM, tocotrienol 1 μM
  effect on tocotrienol-induced stemness and pluripotency factors: markedly blunted

## α-tocotrienol [pure tocotrienol]
β-catenin-Tcf3 complex; pure tocotrienol 1 μM
  stemness and pluripotency factors (SOX9, OCT4, K17, K15, KLF4, c-MYC, NANOG) in keratinocytes: induction of stemness as well as pluripotency factors
β-catenin and Tcf3
  interaction of β-catenin and Tcf3 (PLA): interaction of β-catenin and Tcf3 in the nucleus
[1]; 1 μM
  membrane E-cadherin expression: sharp decrease
[1]; pure tocotrienol 1 μM
  nuclear translocation of β-catenin: nuclear translocation of β-catenin
